Reference: patent publication US10479752B2, “Deuterated tetramethyl dioic acids, compositions comprising them and uses thereof” (SYNDROMEX LTD., priority 2011, dated 2019)

Tests used:
[1] = Chemical and isotopic stability as solutions in DMSO/phosphate buffered saline over 48 hours; conditions: for analyte recovered, yield: summary over the study; for disenrichment of the product (isotopic stability): throughout the time period of the study
Protocol: A 1 mg/mL stock solution (˜55 mL) of deuterated compound in DMSO was prepared. A measured volume of stock (7.5 mL) was dispensed in to each of seven vials. To each vial was added a measured volume of PBS (aq) (3.0 mL), and each vial was agitated to mix. The vials were then placed in a thermostatically-controlled oven set to 37° C. At each time-point (0 h, 2 h, 4 h, 24 h, 48 h) a vial was drawn from the oven. To the vial was added MTBE (9.0 mL), and the mixture was stirred vigorously for 5 min. The layers were separated, and the MTBE layer was agitated with DI water (3.75 mL) for 1 min. The layers were separated. The MTBE layer was dried with MgSO4 for >1 h, and then filtered through a PTFE syringe filter into a tared vial. The solution was concentrated in vacuo to a solid residue, and the mass of the residue was calculated and recorded. To the residue a measured volume of MeOH was added to make (theoretically) a 2.5 mg/mL solution. In this case, 3.00 mL MeOH was added to each vial which theoretically contained 7.5 mg of compound. The content of each solution was measured by quantitative HPLC analysis (by comparison to a standard of known concentration). The MeOH solutions were then recovered, concentrated in vacuo to a solid, and then analyzed by GCMS to determine isotopic enrichment as the methyl ester derivatives.

[2] = Comparative oral bioavailability / pharmacokinetic study, single intravenous and oral administration; assay type: in vivo; conditions: rat
Protocol: The pharmacokinetic properties and the oral bioavailability were investigated for the following comparative compounds:
The plasma concentrations of the test items were measured by LC/MS/MS method following single intravenous and oral administration at the doses of 5 mg/kg body weight and 50 mg/kg body weight, respectively. Following intravenous administration small inter-individual variability was observed. Following i.v administration, the highest plasma concentrations were measured at the first sampling time-point (5 minutes) followed by a biphasic continuous decrease. […] The peak concentrations, tmax and the apparent terminal elimination half-lives (t1/2) were the followings:
The vehicle for oral administration was prepared in advance. Preparation: 1 g of carboxymethylcellulose sodium salt was dissolved in 100 ml of Humaqua. The vehicle was prepared at least 2 days prior to formulation of the test items. The vehicle was stored in a refrigerator when not in use.
The required amount of test item was weighed on an analytical balance, transferred into a suitable vial. The test item was dissolved in the required volume of N,N-dimethylacetamide (40% of the final volume). Dissolution of the test item was facilitated by gentle mixing by vortex. The solution was diluted with the suitable volume of PEG400 (40% of the final volume) then Salsol A (20% of the final volume). The final concentration of the test item in the solution was 5 mg/ml. The formulations were prepared freshly on the day of administration.
The required amount of test item was weighed on an analytical balance, transferred into a test tube and mixed with the suitable volume of 1% CMC to achieve the final concentration of 25 mg/ml. The suspension was sonicated twice in bath sonicator for 30 min at 40 C (each round), and left overnight at room temperature. On the following day, the suspension was sonicated again (bath sonicator, 30 min, 40° C.) and further homogenized in a glass/glass homogenizer trying to reaching an homogenous suspension. In spite of the above procedure the quality (homogeneity) of the suspension was not perfect. The suspension was stored at room temperature till administration.
Species/Strain rat/Wistar (Crl:(WI)BR rats)
Number of animals: 24 males (at least 32 for cannulation*)
After the acclimatization period, rats were equipped with a jugular vein cannula under isoflurane anesthesia. The following day the animals were used for the study. In the morning the rats were checked for health status and blood sampling before assigning them into the experimental group.
The terminal elimination phase was defined on the basis of the last 3-5 measured concentration except rat A4. […] The central volume of distribution (Vc: […]) was approximately equal to the total blood volume. The volume of distribution estimated for the steady state situation (Vss: 97.3-143 ml/kg) remained also small compared to the total extracellular fluid volume (˜300 ml/kg). The clearance was also very small for all experimental compound analogues. The smallest clearance was obtained for Compound 7: 23.2 ml/h/kg.

[3] = DMSO/PBS solution, 37° C., 24 h
[4] = DMSO/PBS solution, 37° C., 48 h
[5] = Original Sample (before the stability study)

Compound	GC/MS IE (isotopic enrichment) ([1]; DMSO/PBS solution, 37° C., 0 h) [%]	HPLC Area Percentage ([1]; DMSO/PBS solution, 37° C., 0 h) [%]	HPLC Assay ([1]; DMSO/PBS solution, 37° C., 0 h) [%]	GC/MS IE (isotopic enrichment) ([1]; DMSO/PBS solution, 37° C., 2 h) [%]	HPLC Area Percentage ([1]; DMSO/PBS solution, 37° C., 2 h) [%]	HPLC Assay ([1]; DMSO/PBS solution, 37° C., 2 h) [%]	GC/MS IE (isotopic enrichment) ([1]; DMSO/PBS solution, 37° C., 4 h) [%]	HPLC Area Percentage ([1]; DMSO/PBS solution, 37° C., 4 h) [%]	HPLC Assay ([1]; DMSO/PBS solution, 37° C., 4 h) [%]	GC/MS IE (isotopic enrichment) [1, 3] [%]	HPLC Area Percentage [1, 3] [%]	HPLC Assay [1, 3] [%]	GC/MS IE (isotopic enrichment) [1, 4] [%]	HPLC Area Percentage [1, 4] [%]	HPLC Assay [1, 4] [%]	analyte recovered, yield ([1]; DMSO/PBS solution, 37° C.)	disenrichment of the product (isotopic stability) ([1]; DMSO/PBS solution, 37° C.)	HPLC Area Percentage [1, 5] [%]	GC/MS IE (isotopic enrichment) [1, 5] [%]	also measured
[2H]C([2H])([2H])C(CCCCCCCCCCC(CC(=O)O)(C([2H])([2H])[2H])C([2H])([2H])[2H])(CC(=O)O)C([2H])([2H])[2H] [Compound 3, 3,3,14,14-[D12]Tetramethyl-1,16-hexadecanedoic acid]	99.9	98.0	33.3	99.9	98.8	38.4	99.9	98.4	32.4	99.9	98.6	46.0	99.9	98.5	50.2	about 95%	No disenrichment	100.0		
CC(C)(CCCCCCCCCCCCC(C)(C)C(=O)O)C(=O)O [Compound 7″, reference compound]																				C0 ([2]; 5 mg/kg iv dose, Mean CV (%)): 74.6 (6.9%) μg/ml; t1/2 ([2]; 5 mg/kg iv dose, Mean CV (%)): 2.18 (19.1%) h; AUCinf ([2]; 5 mg/kg iv, Mean CV (%)): 128 (13.4%) h * μg/ml; Cmax ([2]; 50 mg/kg po dose, Mean CV (%)): 143 (41.3%) μg/ml; t1/2 ([2]; 50 mg/kg po dose, Mean CV (%)): 2.22 (9.9%) h; tmax ([2]; 50 mg/kg po dose, Mean CV (%)): 8 (50.0%) h; F (oral bioavailability) ([2]; 50 mg/kg po vs 5 mg/kg iv, Mean (CV %)): 124 (28.3) %; AUCinf ([2]; 50 mg/kg po, Mean CV (%)): 1586 (28.3%) h * μg/ml
[2H]C([2H])([2H])C(CCCCCCCCCCCCC(C([2H])([2H])[2H])(C([2H])([2H])[2H])C([2H])([2H])C(=O)O)(C([2H])([2H])[2H])C([2H])([2H])C(=O)O [Compound 4, 3,3,16,16-[D16]Tetramethyl-1,18-octadecanedioic acid]	98.6	97.2	70.9	98.4	97.8	65.9	98.4	97.5	53.8	98.4	96.5	93.8	98.3	97.5	77.6			99.2	98.3	stability results overall, in words ([1]; DMSO/PBS solution, 37° C., 48 h study): essentially the same as those for Compound 1
[2H]C([2H])([2H])C(CCCCCCCCCCCCCCC(C(=O)O)(C([2H])([2H])[2H])C([2H])([2H])[2H])(C(=O)O)C([2H])([2H])[2H] [Compound 8, 2,2,17,17-Tetramethyl(D12)-octadecanedioic acid]	99.9	95.1	60.0	99.9	94.3	68.7	99.9	94.1	56.9	99.9	96.0	66.8	99.9	97.2	47.7	about 85%	No disenrichment	100.0	99.9	chemical purity (HPLC area percent) with respect to related substances ([1]; DMSO/PBS solution, 37° C., all samples through the study): around 95%
